# Biological target: Carbonic anhydrase 3 (Homo sapiens, UniProt P07451)
# Sequence (P07451 whole entry): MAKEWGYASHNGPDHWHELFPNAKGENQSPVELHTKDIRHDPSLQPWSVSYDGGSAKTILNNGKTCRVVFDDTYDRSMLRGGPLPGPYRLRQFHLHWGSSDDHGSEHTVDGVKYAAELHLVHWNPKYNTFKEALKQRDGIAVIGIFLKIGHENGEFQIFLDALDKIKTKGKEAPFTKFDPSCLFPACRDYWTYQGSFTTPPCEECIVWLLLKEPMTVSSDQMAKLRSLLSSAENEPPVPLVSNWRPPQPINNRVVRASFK
# Description: Inhibition of human CA3 preincubated for 15 mins by phenol red dye based stopped flow CO2 hydration assay
structure (smiles),measurement,value
N=C(N)c1ccc2nc(-c3cc(CC(=O)N[C@@H](CC(=O)O)C(=O)O)cc(-c4cc(S(N)(=O)=O)ccc4O)c3O)[nH]c2c1 [PCI-27483],Ki,> 100 µM
